Key:
Assay type in all cases: functional, cell-based
A-375 = assay: Antiproliferative activity against human A375 cells after 48 hrs by MTT assay; settings: A-375, 48 h
MDA-MB-231 = assay: Antiproliferative activity against human MDA-MB-231 cells after 48 hrs by MTT assay; settings: MDA-MB-231, 48 h
4T1 = assay: Antiproliferative activity against mouse 4T1 cells after 48 hrs by MTT assay; settings: 4T1, 48 h
B16-F10 = assay: Antiproliferative activity against mouse B16F10 cells after 48 hrs by MTT assay; settings: B16-F10, 48 h
PANC-1 = assay: Antiproliferative activity against human PANC1 cells after 48 hrs by MTT assay; settings: PANC-1, 48 h
A549 = assay: Antiproliferative activity against human A549 cells after 48 hrs by MTT assay; settings: A549, 48 h
MCF7 = assay: Antiproliferative activity against human MCF7 cells after 48 hrs by MTT assay; settings: MCF7, 48 h
HeLa = assay: Antiproliferative activity against human HeLa cells
HT-29 = assay: Antiproliferative activity against human HT-29 cells

| SMILES | IC50 (A-375) [µM] | IC50 (MDA-MB-231) [µM] | IC50 (4T1) [µM] | IC50 (B16-F10) [µM] | IC50 (PANC-1) [µM] | IC50 (A549) [µM] | IC50 (MCF7) [µM] | IC50 (HeLa) [µM] | IC50 (HT-29) [µM] |
| --- | --- | --- | --- | --- | --- | --- | --- | --- | --- |
| CC[C@H](C)[C@H](NC(=O)OCc1ccccc1)C(=O)O[C@@H](CC(C)C)C(=O)N[C@@H](CC(C)C)C(=O)N[C@@H](C)/C=C/C(=O)N1C(=O)C=C(OC)[C@@H]1C | 5.49 | 15.6 | 15 | 4.23 | 14 | 13.8 | 32.9 |  |  |
| CC[C@H](C)[C@@H](C(=O)O[C@@H](CC(C)C)C(=O)N[C@@H](CC(C)C)C(=O)N[C@@H](C)/C=C/C(=O)NC(C)(C)C)N(C)C | > 100 | > 100 | > 100 | > 100 | 38.3 | > 100 | > 100 |  |  |
| CC[C@H](C)[C@H](NC(=O)OCc1ccccc1)C(=O)N[C@@H](CC(C)C)C(=O)N[C@@H](CC(C)C)C(=O)N[C@@H](C)/C=C/C(=O)N1C(=O)C=C(OC)[C@@H]1c1c[nH]c2ccccc12 | > 100 | > 100 | > 100 | > 100 | > 100 | > 100 | > 100 |  |  |
| CC[C@H](C)[C@@H](C(=O)O[C@@H](CC(C)C)C(=O)N[C@@H](CC(C)C)C(=O)N[C@@H](C)/C=C/C(=O)N1C(=O)C=C(OC)[C@@H]1C)N(C)C [GALLINAMIDE A] | 45.6 | 34.9 | 34.6 | 59.7 | 31.2 | 40.4 | 45.5 | 12 | 53 |
| COC1=CC(=O)N(C(=O)/C=C/[C@H](C)NC(=O)[C@H](CC(C)C)N(C)C)[C@@H]1Cc1ccccc1 | > 100 | 94.8 | > 100 | > 100 | 86.9 | > 100 | > 100 |  |  |
| COC1=CC(=O)N(C(=O)/C=C/[C@H](C)NC(=O)[C@H](CC(C)C)N(C)C)[C@H]1C(C)C | 7.56 | 89.5 | > 100 | 30.5 | 12.8 | > 100 | 18.6 |  |  |
| CC[C@H](C)[C@H](NC(=O)OCc1ccccc1)C(=O)O[C@@H](CC(C)C)C(=O)N[C@@H](CC(C)C)C(=O)N[C@@H](C)/C=C/C(=O)N1C(=O)C=C(OC)[C@@H]1Cc1ccccc1 | 45.9 | > 100 | 79.8 | 30.1 | 59.3 | 41.4 | > 100 |  |  |
| CC[C@H](C)[C@@H](C(=O)N[C@@H](CC(C)C)C(=O)N[C@@H](CC(C)C)C(=O)N[C@@H](C)/C=C/C(=O)N1C(=O)C=C(OC)[C@@H]1C)N(C)C | 11.2 | 38.2 | 16.5 | 15.1 | 15.7 | 50.5 | 38.9 |  |  |
| COC1=CC(=O)N(C(=O)/C=C/[C@H](C)NC(=O)[C@H](CC(C)C)N(C)C)[C@H]1C | 11.4 | 79.7 | 19.2 | 29.2 | 82.1 | 30 | 75.1 |  |  |
| CC[C@H](C)[C@@H](C(=O)O[C@@H](CC(C)C)C(=O)N[C@@H](CC(C)C)C(=O)N[C@@H](C)/C=C/C(=O)N1CCOCC1)N(C)C | > 100 | > 100 | > 100 | > 100 | > 100 | > 100 | > 100 |  |  |
| CC[C@H](C)[C@@H](C(=O)O[C@@H](CC(C)C)C(=O)N[C@@H](CC(C)C)C(=O)N[C@@H](C)/C=C/C(=O)N(CC)CC)N(C)C | > 100 | > 100 | > 100 | > 100 | > 100 | > 100 | > 100 |  |  |
| CC[C@H](C)[C@@H](C(=O)O[C@@H](CC(C)C)C(=O)N[C@@H](CC(C)C)C(=O)N[C@@H](C)/C=C/C(=O)OC)N(C)C | > 100 | > 100 | > 100 | > 100 | > 100 | > 100 | > 100 |  |  |
| COC1=CC(=O)N(C(=O)/C=C/[C@H](C)NC(=O)[C@H](CC(C)C)N(C)C)[C@H]1Cc1ccccc1 | > 100 | 57.7 | > 100 | > 100 | 67 | > 100 | > 100 |  |  |

Second part, led by results:

| IC50 (A-375) [µM] | IC50 (MDA-MB-231) [µM] | IC50 (4T1) [µM] | IC50 (B16-F10) [µM] | IC50 (PANC-1) [µM] | IC50 (A549) [µM] | IC50 (MCF7) [µM] | SMILES | IC50 (HeLa) [µM] | IC50 (HT-29) [µM] |
| --- | --- | --- | --- | --- | --- | --- | --- | --- | --- |
| 1.35 | 1.96 | 1.92 | 0.892 | 0.787 | 15.1 | 4.66 | CC[C@H](C)[C@H](NC(=O)OCc1ccccc1)C(=O)N[C@@H](CC(C)C)C(=O)N[C@@H](CC(C)C)C(=O)N[C@@H](C)/C=C/C(=O)N1C(=O)C=C(OC)[C@@H]1C |  |  |
| 44.2 | 25.1 | 35.3 | 60.5 | > 100 | 20.8 | 10.1 | CC[C@H](C)[C@H](NC(=O)Nc1ccc(OC)cc1)C(=O)N[C@@H](CC(C)C)C(=O)N[C@@H](CC(C)C)C(=O)N[C@@H](C)/C=C/C(=O)N1C(=O)C=C(OC)[C@@H]1C(C)C |  |  |
| 9.89 | 22.2 | 20.1 | 7.07 | 5.21 | 36.2 | 14.9 | C#CCCC(=O)N[C@H](C(=O)N[C@@H](CC(C)C)C(=O)N[C@@H](CC(C)C)C(=O)N[C@@H](C)/C=C/C(=O)N1C(=O)C=C(OC)[C@@H]1C(C)C)[C@@H](C)CC |  |  |
| 15.2 | 32.8 | 40.8 | 15.2 | 11.6 | 14.6 | 11.2 | CC[C@H](C)[C@H](NC(=O)Cc1cccc(C(F)(F)F)c1)C(=O)N[C@@H](CC(C)C)C(=O)N[C@@H](CC(C)C)C(=O)N[C@@H](C)/C=C/C(=O)N1C(=O)C=C(OC)[C@@H]1C(C)C |  |  |
| 35.7 | 98.3 | 27.6 | 61.6 | 36 | 52.5 | > 100 | CC[C@H](C)[C@@H](C(=O)N[C@@H](CC(C)C)C(=O)N[C@@H](CC(C)C)C(=O)N[C@@H](C)/C=C/C(=O)N1C(=O)C=C(OC)[C@@H]1C(C)C)N(C)C |  |  |
| > 100 | > 100 | > 100 | > 100 | > 100 | > 100 | > 100 | CC[C@H](C)[C@H](NC(=O)OCc1ccccc1)C(=O)N[C@@H](CC(C)C)C(=O)N[C@@H](CC(C)C)C(=O)N[C@@H](C)/C=C/C(=O)N1C(=O)C=C(OC)[C@@H]1Cc1ccccc1 |  |  |
| 13.7 | 12.8 | 27.9 | 24.9 | 19.6 | 27.5 | 21.2 | CC[C@H](C)[C@H](NC(=O)OCc1ccccc1)C(=O)O[C@@H](CC(C)C)C(=O)N[C@@H](CC(C)C)C(=O)N[C@@H](C)/C=C/C(=O)N1C(=O)C=C(OC)[C@@H]1C(C)C |  |  |
